According to ChEMBL document CHEMBL1150785 (Antimicrob Agents Chemother, 2007):
≈ marks a conversion by molar mass, not a printed value.

How the values were obtained:
Assay type in all cases: functional
[1] = system: Mycobacterium tuberculosis; assay: Antimicrobial activity against Mycobacterium tuberculosis H37Ra assessed as microbial kill activity
[2] = system: Mycobacterium tuberculosis; assay: Antimicrobial activity against Mycobacterium tuberculosis H37Ra
[3] = system: Mycobacterium tuberculosis; assay: Antimicrobial activity against Mycobacterium tuberculosis in mouse assessed as microbial kill activity
[4] = system: Mycobacterium tuberculosis; assay: Antimicrobial activity against Mycobacterium tuberculosis H37Ra assessed as early bactericidal activity

Question: What does the source list for `NNC(=O)c1ccncc1` [ISONIAZID]?
Answer: log10CFU/ml [1]: 2.89; MIC [2]: 0.0156 µg/mL (≈ 0.114 µM); log10cfu [3]: 1.3; log10CFU/ml/day [4]: 0.9
